Our source for the flash point values is a flash point compilation (Sun et al. 2020).

The structures appear in SMILES notation.

`CC(=O)OCC(COC(C)=O)OC(C)=O` [2,3-diacetyloxypropyl acetate] came in with a flash point of 138.00 °C. In turn, `C=C(C)C(=O)OCC(Br)CBr` (stereo unspecified) [2,3-dibromopropyl 2-methylprop-2-enoate] came in with a flash point of 59.00 °C. `O=CC(Cl)=C(Cl)C(=O)O` [2,3-dichloro-4-oxobut-2-enoic acid] came in with a flash point of 100.00 °C.

Molecule `C=C(Cl)CCl` [2,3-dichloroprop-1-ene] showed a flash point of 10.00 °C. On to `OCC(Cl)CCl` (stereo unspecified) [2,3-dichloropropan-1-ol], for which the flash point was found to be 91.00 °C.

With `CC(C)C(C)C` [2,3-dimethylbutane], the flash point was -29.00 °C. The same measure for `CC1OC1C` (stereo unspecified) [2,3-dimethyloxirane]: -18.00 °C. `CCC(C)C(C)CO` (stereo unspecified) [2,3-dimethylpentan-1-ol] displayed a flash point of 61.00 °C. Molecule `C=C(C)CC(C)(C)C` [2,4,4-trimethylpent-1-ene] had a flash point of 2.00 °C. The same measure for `Cc1cc(C)nc(C)c1` [2,4,6-trimethylpyridine]: 58.00 °C; for `CN(C)Cc1cc(CN(C)C)c(O)c(CN(C)C)c1` [2,4,6-tris[(dimethylamino)methyl]phenol]: 124.00 °C; for `CCCCCCCCCc1ccc(O)c(CCCCCCCCC)c1` [2,4-di(nonyl)phenol]: 127.00 °C. As to `Oc1ccc(Br)cc1Br` [2,4-dibromophenol], the flash point came to 113.00 °C.

`O=Cc1ccc(Cl)cc1Cl` [2,4-dichlorobenzaldehyde] came in with a flash point of 135.00 °C.

Molecule `Cc1ccc(N)c(C)c1` [2,4-dimethylaniline] yielded a flash point of 96.00 °C. In the case of `Nc1cc(Cl)ccc1Cl` [2,5-dichloroaniline], the flash point came to 113.00 °C.

`Cc1ccc(C)o1` [2,5-dimethylfuran]: the flash point is -1.00 °C. On to `CC1CCC2CC1C2(C)C` (stereo unspecified) [2,6,6-trimethylbicyclo[3.1.1]heptane], for which the flash point is 40.00 °C.

In turn, `O=Cc1c(Cl)cccc1Cl` [2,6-dichlorobenzaldehyde] had a flash point of 135.00 °C. In the case of `Cc1cccc(C)c1N.Cl` [2,6-dimethylaniline;hydrochloride], the flash point came out at 91.00 °C.

Take `CC(C)CC(=O)CC(C)C` [2,6-dimethylheptan-4-one]: the flash point turned out to be 60.00 °C. `CC(Oc1ccc(Cl)cc1Cl)C(=O)O` (stereo unspecified) [2-(2,4-dichlorophenoxy)propanoic acid]: the flash point came to 204.00 °C. The same measure for `CCCCOCCOCCSC#N` [2-(2-butoxyethoxy)ethyl thiocyanate]: 52.00 °C.

With `CCOCCOCCOC(C)=O` [2-(2-ethoxyethoxy)ethyl acetate], the flash point was 110.00 °C. As to `CCCCCCOCCOCCO` [2-(2-hexoxyethoxy)ethanol], the flash point came to 141.00 °C. For `OCCOCCO` [2-(2-hydroxyethoxy)ethanol], the flash point came out at 143.00 °C. In the case of `OCCNCCO` [2-(2-hydroxyethylamino)ethanol], the flash point was found to be 137.00 °C. On to `Oc1cc(O)c2cc(O)c(-c3cc(O)c(O)c(O)c3)[o+]c2c1.[Cl-]` [2-(3,4,5-trihydroxyphenyl)chromenylium-3,5,7-triol;chloride], for which the flash point was determined as 193.00 °C. As to `CC(C)=CCC1CCCC1=O` (stereo unspecified) [2-(3-methylbut-2-enyl)cyclopentan-1-one], the flash point was determined as 23.00 °C.

Consider `OCCN1CC1` [2-(aziridin-1-yl)ethanol], for which the flash point worked out at 67.00 °C. `CCCCN(CCO)CCCC` [2-(dibutylamino)ethanol] yielded a flash point of 99.00 °C. In turn, `CCN(CC)CCO` [2-(diethylamino)ethanol] returned a flash point of 60.00 °C. The same measure for `C=CC(=O)OCCN(CC)CC` [2-(diethylamino)ethyl prop-2-enoate]: 91.00 °C; for `CN(C)CCO` [2-(dimethylamino)ethanol]: 41.00 °C; for `C=C(C)C(=O)OCCN(C)C` [2-(dimethylamino)ethyl 2-methylprop-2-enoate]: 74.00 °C. The molecule `CCNCCO` [2-(ethylamino)ethanol] showed a flash point of 71.00 °C. As to `C(OCC1CO1)C1CO1` (stereo unspecified) [2-(oxiran-2-ylmethoxymethyl)oxirane], the flash point turned out to be 64.00 °C. `CC(C)OCC1CO1` (stereo unspecified) [2-(propan-2-yloxymethyl)oxirane] registered a flash point of 33.00 °C.

`C=C(C)C(=O)OCCNC(C)(C)C` [2-(tert-butylamino)ethyl 2-methylprop-2-enoate] came in with a flash point of 96.00 °C. The same measure for `ClC(Cl)(Cl)C1CO1` (stereo unspecified) [2-(trichloromethyl)oxirane]: 67.00 °C; for `CCCCCCCCCCOC(=O)c1ccccc1C(=O)OCCCCCCCC` [2-O-decyl 1-O-octyl benzene-1,2-dicarboxylate]: 235.00 °C. As for `CCOCCOCCOCCO` [2-[2-(2-ethoxyethoxy)ethoxy]ethanol], the flash point turned out to be 135.00 °C. As to `OCCOCCOCCO` [2-[2-(2-hydroxyethoxy)ethoxy]ethanol], the flash point was 166.00 °C. `CC(O)COC(C)COC(C)CO` (stereo unspecified) [2-[2-(2-hydroxypropoxy)propoxy]propan-1-ol]: the flash point was 141.00 °C. The molecule `CN(C)CCOCCN(C)C` [2-[2-(dimethylamino)ethoxy]-N,N-dimethylethanamine] displayed a flash point of 79.00 °C. On to `CCCCOCCOCCOCCOCCO` [2-[2-[2-(2-butoxyethoxy)ethoxy]ethoxy]ethanol], for which the flash point is 166.00 °C. The same measure for `COCCOCCOCCOCCO` [2-[2-[2-(2-methoxyethoxy)ethoxy]ethoxy]ethanol]: 161.00 °C; for `CN(CCO)CCO` [2-[2-hydroxyethyl(methyl)amino]ethanol]: 127.00 °C; for `Cc1ccccc1OCC1CO1` (stereo unspecified) [2-[(2-methylphenoxy)methyl]oxirane]: 93.00 °C. As for `CC(C)(C)OCC1CO1` (stereo unspecified) [2-[(2-methylpropan-2-yl)oxymethyl]oxirane], the flash point worked out at 43.00 °C. Molecule `c1cc(OCC2CO2)cc(OCC2CO2)c1` (stereo unspecified) [2-[[3-(oxiran-2-ylmethoxy)phenoxy]methyl]oxirane] came in with a flash point of 177.00 °C. Take `CC(=O)Oc1ccccc1C(=O)O` [2-acetyloxybenzoic acid]: the flash point amounted to 250.00 °C. `CC(=O)OCC(C)OC(C)=O` (stereo unspecified) [2-acetyloxypropyl acetate] came in with a flash point of 86.00 °C. In turn, `Nc1ccccc1C(=O)O` [2-aminobenzoic acid] came in with a flash point of 171.00 °C. In turn, `NCCO` [2-aminoethanol] had a flash point of 93.00 °C. The same measure for `Nc1ccccc1O` [2-aminophenol]: 168.00 °C; for `Oc1ccc(Cl)cc1Cc1ccccc1` [2-benzyl-4-chlorophenol]: 188.00 °C. In the case of `O=C(O)C(Cl)Br` (stereo unspecified) [2-bromo-2-chloroacetic acid], the flash point was 110.00 °C. Regarding `CC(C)(C)Br` [2-bromo-2-methylpropane], the flash point was -16.00 °C. `O=[N+]([O-])C(Br)(CO)CO` [2-bromo-2-nitropropane-1,3-diol] came in with a flash point of 167.00 °C.

For the molecule `O=C(O)CBr` [2-bromoacetic acid], the flash point was 113.00 °C. Take `CCC(C)Br` (stereo unspecified) [2-bromobutane]: the flash point is 21.00 °C. Molecule `CCCC(C)Br` (stereo unspecified) [2-bromopentane] yielded a flash point of 21.00 °C.

On to `CCCCOCCOC(C)=O` [2-butoxyethyl acetate], for which the flash point was determined as 71.00 °C.

`O=C(CCl)c1ccccc1` [2-chloro-1-phenylethanone] came in with a flash point of 118.00 °C.

The molecule `CC(C)(Cl)[N+](=O)[O-]` [2-chloro-2-nitropropane] registered a flash point of 57.00 °C.

In turn, `C=CCN(CC=C)C(=O)CCl` [2-chloro-N,N-bis(prop-2-enyl)acetamide] gave a flash point of 186.00 °C. The same measure for `O=C(O)CCl` [2-chloroacetic acid]: 150.00 °C; for `Nc1ccccc1Cl` [2-chloroaniline]: 98.00 °C; for `C=C(Cl)C#N` [2-chloroprop-2-enenitrile]: 7.00 °C.

As to `CC(C)Cl` [2-chloropropane], the flash point was -32.00 °C.

Consider `CC(Cl)C(=O)O` (stereo unspecified) [2-chloropropanoic acid], for which the flash point worked out at 107.00 °C. In turn, `C=CC(=O)OCCC#N` [2-cyanoethyl prop-2-enoate] gave a flash point of 124.00 °C. On to `O=C1c2ccccc2C(=O)N1SC1CCCCC1` [2-cyclohexylsulfanylisoindole-1,3-dione], for which the flash point came out at 177.00 °C.

For `CNC(=O)CSP(=S)(OC)OC` [2-dimethoxyphosphinothioylsulfanyl-N-methylacetamide], the flash point came to 51.00 °C.

Molecule `CCCCCCCCCCCCc1ccccc1O` [2-dodecylphenol] displayed a flash point of 163.00 °C.

As for `C=CC1CO1` (stereo unspecified) [2-ethenyloxirane], the flash point was -46.00 °C. `CCOC(C)(C)C` [2-ethoxy-2-methylpropane]: the flash point is -19.00 °C. Turning to `CCOCC(=O)O` [2-ethoxyacetic acid], the flash point was 98.00 °C. `CCC(CO)(CO)CO` [2-ethyl-2-(hydroxymethyl)propane-1,3-diol] showed a flash point of 172.00 °C. For `CCc1ccccc1N` [2-ethylaniline], the flash point worked out at 85.00 °C. `C=CC(=O)OCC(CC)CC` [2-ethylbutyl prop-2-enoate] had a flash point of 52.00 °C. In turn, `CCCC=C(C=O)CC` [2-ethylhex-2-enal] yielded a flash point of 68.00 °C. As for `C=C(C)C(=O)OCC(CC)CCCC` (stereo unspecified) [2-ethylhexyl 2-methylprop-2-enoate], the flash point was found to be 92.00 °C. `CCCCC(CC)COC(C)=O` (stereo unspecified) [2-ethylhexyl acetate]: the flash point came to 88.00 °C. In the case of `CCc1ccc2ccccc2c1` [2-ethylnaphthalene], the flash point worked out at 104.00 °C.
